Key:
[1] = tested on: Adjuvant induced arthritis; assay: Adjuvant induced arthritis in the rat (primary lesion, paw swelling); assay type: in vivo, rat (Royal Hart, Wistar strain); settings: once daily days 0 to 13
Protocol: Adjuvant induced arthritis in the rat
Groups of three Royal Hart, Wistar strain rats weighing 200±10 g. each were injected intradermally in the right hind paw with Freund's adjuvant (dried human tubercle bacilli in a mineral oil vehicle) at a dose of 2 mg./kg. of body weight. The test compounds were administered orally in a 1.5% starch vehicle at various doses once daily on days 0 to 13 post challenge. Control rats were treated in a similar manner, but given only starch vehicle. On the 14th and 21st day post challenge the diameter of the injected paw was measured by micrometer caliper. The volume of inflamed paws were estimated from these measurements and the effects of each compound are expressed as percent inhibition of swelling was compared to controls. Table I records the results of these tests conducted with representative compounds of this invention and known anti-inflammatory agents. The active compounds of this invention suppress the progression of the arthritis and associated joint deterioration.

[2] = tested on: arthritic paw swelling; joint and bone deterioration; settings: literature (S. Wong et al.; G. R. Bobalick et al.); cited from earlier work

N#CCC(=O)c1ccccc1.[Na] [Benzoylacetonitrile sodium salt, Benzoylacetonitrile, sodium salt]
(Primary Lesion) % Inhibition of Swelling Day 14 ([1]; oral 50 mg./kg.): 59%
(Primary Lesion) % Inhibition of Swelling Day 21 ([1]; oral 50 mg./kg.): 45%

CC(=O)Oc1ccccc1C(=O)O [Aspirin]
(Primary Lesion) % Inhibition of Swelling Day 14 ([1]; oral 50 mg./kg.): 23%
(Primary Lesion) % Inhibition of Swelling Day 21 ([1]; oral 50 mg./kg.): 3%
(Primary Lesion) % Inhibition of Swelling Day 14 ([1]; oral 100 mg./kg.): 36%
(Primary Lesion) % Inhibition of Swelling Day 21 ([1]; oral 100 mg./kg.): 13%
(Primary Lesion) % Inhibition of Swelling Day 14 ([1]; oral 200 mg./kg.): 48%
(Primary Lesion) % Inhibition of Swelling Day 21 ([1]; oral 200 mg./kg.): 27%
(Primary Lesion) % Inhibition of Swelling Day 14 ([1]; oral 400 mg./kg.): 73%
(Primary Lesion) % Inhibition of Swelling Day 21 ([1]; oral 400 mg./kg.): 48%

CCCCC1C(=O)N(c2ccccc2)N(c2ccccc2)C1=O [Phenylbutazone]
(Primary Lesion) % Inhibition of Swelling Day 14 ([1]; oral 18.5 mg./kg.): 31%
(Primary Lesion) % Inhibition of Swelling Day 21 ([1]; oral 18.5 mg./kg.): 7%
(Primary Lesion) % Inhibition of Swelling Day 14 ([1]; oral 37.5 mg./kg.): 56%
(Primary Lesion) % Inhibition of Swelling Day 21 ([1]; oral 37.5 mg./kg.): 14%
(Primary Lesion) % Inhibition of Swelling Day 14 ([1]; oral 75 mg./kg.): 62%
(Primary Lesion) % Inhibition of Swelling Day 21 ([1]; oral 75 mg./kg.): 28%
(Primary Lesion) % Inhibition of Swelling Day 14 ([1]; oral 150 mg./kg.): 75%
(Primary Lesion) % Inhibition of Swelling Day 21 ([1]; oral 150 mg./kg.): 44%

N#CCC(=O)c1ccc(F)cc1.[Na] [p-Fluorobenzoylacetonitrile sodium salt, p-Fluorobenzoylacetonitrile, sodium salt]
(Primary Lesion) % Inhibition of Swelling Day 14 ([1]; oral 50 mg./kg.): 53%
(Primary Lesion) % Inhibition of Swelling Day 21 ([1]; oral 50 mg./kg.): 32%

COc1ccc2c(c1)c(CC(=O)O)c(C)n2C(=O)c1ccc(Cl)cc1 [Indomethacin]
(Primary Lesion) % Inhibition of Swelling Day 14 ([1]; oral 0.25 mg./kg.): 30%
(Primary Lesion) % Inhibition of Swelling Day 21 ([1]; oral 0.25 mg./kg.): 4%
(Primary Lesion) % Inhibition of Swelling Day 14 ([1]; oral 0.5 mg./kg.): 40%
(Primary Lesion) % Inhibition of Swelling Day 21 ([1]; oral 0.5 mg./kg.): 20%
(Primary Lesion) % Inhibition of Swelling Day 14 ([1]; oral 1 mg./kg.): 46%
(Primary Lesion) % Inhibition of Swelling Day 21 ([1]; oral 1 mg./kg.): 19%
(Primary Lesion) % Inhibition of Swelling Day 14 ([1]; oral 2 mg./kg.): 51%
(Primary Lesion) % Inhibition of Swelling Day 21 ([1]; oral 2 mg./kg.): 24%
arthritic paw swelling [2]: inhibit arthritic paw swelling
joint and bone deterioration [2]: prevent joint and bone deterioration
